The numbers were not newly measured in paper PMC13167888 (Cancer Chemotherapy and Pharmacology, 2026), which cites them from elsewhere.

Usually IC50 stands for the midpoint of a concentration-inhibition curve.

The conditions of data set [1]: bosutinib.
Another data set deals with T1, BCRP (Homo sapiens, UniProt Q9UNQ0).
T1 sequence (Q9UNQ0 1-655): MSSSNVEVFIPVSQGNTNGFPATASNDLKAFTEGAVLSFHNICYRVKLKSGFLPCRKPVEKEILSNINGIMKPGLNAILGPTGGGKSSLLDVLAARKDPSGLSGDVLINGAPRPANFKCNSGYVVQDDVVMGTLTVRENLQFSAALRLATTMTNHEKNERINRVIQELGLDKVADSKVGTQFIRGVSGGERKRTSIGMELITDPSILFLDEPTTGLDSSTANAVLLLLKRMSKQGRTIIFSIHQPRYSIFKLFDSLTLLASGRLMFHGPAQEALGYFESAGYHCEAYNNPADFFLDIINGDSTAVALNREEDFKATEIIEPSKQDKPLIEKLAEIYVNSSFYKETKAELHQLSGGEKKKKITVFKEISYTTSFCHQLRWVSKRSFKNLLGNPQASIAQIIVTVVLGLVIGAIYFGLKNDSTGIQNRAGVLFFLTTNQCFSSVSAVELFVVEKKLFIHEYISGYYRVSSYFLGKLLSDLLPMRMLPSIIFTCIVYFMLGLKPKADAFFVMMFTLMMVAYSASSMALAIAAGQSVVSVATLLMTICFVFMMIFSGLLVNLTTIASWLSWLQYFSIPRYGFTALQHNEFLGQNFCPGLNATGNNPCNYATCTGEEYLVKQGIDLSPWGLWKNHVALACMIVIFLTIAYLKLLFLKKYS

Each structure is given as a SMILES string.

`COc1cc(Nc2c(C#N)cnc3cc(OCCCN4CCN(C)CC4)c(OC)cc23)c(Cl)cc1Cl` [bosutinib]: the Plasma protein binding in data set [1] was 94% [37].
Consider `CC(C)/N=c1\cc2n(-c3ccc(Cl)cc3)c3ccccc3nc-2cc1Nc1ccc(Cl)cc1` [clofazimine], for which the IC50 at BCRP is 3.2 µM.
